Assay results: the NIST ThermoML archive (doi:10.1021/acs.jced.6b01013)

Test: xn = mol fraction of the nth substance listed
Conditions: 100 kPa, Liquid, Pycnometric method

COc1ccccc1O [2-methoxyphenol] + C[N+](C)(C)CCO.[Cl-]
mass density [kg/m3]
Conditions	293.15 K	303.15 K	313.15 K	323.15 K
x1 = 0.75	1153.3	1147.5	1141.2	1134.1
x1 = 0.8	1155.6	1147.7	1140.6	1132.4
x1 = 0.83	1149.7	1143.4	1136.2	1128

CC(=O)OCC[N+](C)(C)C.[Cl-] [acetylcholine chloride] + COc1ccccc1O
mass density [kg/m3]
Conditions	293.15 K	303.15 K	313.15 K	323.15 K
x2 = 0.75	1149.6	1146.1	1139.8	1133.8
x2 = 0.8	1149.3	1144.8	1138.1	1131.7
x2 = 0.83	1152.7	1148.1	1142.5	1135.1

CCNCC.Cl [diethylammonium chloride] + COc1ccccc1O
mass density [kg/m3]
Conditions	293.15 K	303.15 K	313.15 K	323.15 K
x2 = 0.75	1095.4	1093.1	1083.7	1075.8
x2 = 0.8	1102.4	1098.3	1089.8	1084.1
x2 = 0.83	1106.1	1103.5	1093.7	1083.5
